Test results: PMC6934184, “Selective DNA-PKcs inhibition extends the therapeutic index of localized radiotherapy and chemotherapy” (The Journal of Clinical Investigation, 2019)

Target: T1, MAP3K7/MAP3K7IP1 (TAK1-TAB1) (Homo sapiens, UniProt O43318)
T1 construct: purchased Thermo Fisher Scientific (Life Technologies) SelectScreen
Test: SelectScreen LanthaScreen
Format: binding
Conditions: read-out: % displacement
Summary of the method: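 SelectScreen broad panel; activity (Z'LYTE, Adapta) plus binding formats. ATP: Km app for CSF1R Z'LYTE; 10 for CAMK1 Adapta. Readout = % per kinase.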

T1 sequence (O43318 1-303 limits assumed): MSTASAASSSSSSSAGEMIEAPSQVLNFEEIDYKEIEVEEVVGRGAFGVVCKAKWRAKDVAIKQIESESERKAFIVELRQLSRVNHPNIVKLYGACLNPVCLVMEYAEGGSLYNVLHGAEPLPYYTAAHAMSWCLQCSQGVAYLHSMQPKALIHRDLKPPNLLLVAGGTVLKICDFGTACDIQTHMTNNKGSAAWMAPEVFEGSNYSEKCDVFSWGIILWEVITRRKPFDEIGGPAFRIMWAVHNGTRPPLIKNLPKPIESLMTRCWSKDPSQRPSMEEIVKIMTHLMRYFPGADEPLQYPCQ
T1 sequence (Q15750 437-504 partner limits assumed): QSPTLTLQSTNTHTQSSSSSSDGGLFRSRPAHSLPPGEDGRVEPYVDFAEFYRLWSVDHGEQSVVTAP

CN(C(=O)CN1CCOCC1)c1ccc2sc3c(-c4cccc5c(=O)cc(N6CC7CCC(C6)O7)oc45)cccc3c2c1 [NU5455]
inhibition at 1 µM: -3.4%
